Experimental data: patent US12686674B2, “Crystal form of compound represented by formula I, and preparation therefor and application thereof” (Shanghai Zhimeng Biopharma, Inc., priority 2021, dated 2026)
Values belong to the compound of their own block, whether it stands above or below them.

Tests used:
AMES experiments = type: cell-based
[1] = Suspension competition of anhydrous crystal forms A/G; type: physicochemical
Description: In order to study the stability relationship between other anhydrous crystal forms (crystal forms A/G), suspension competition experiments were conducted at room temperature and 60° C. using ACN and EtOAc as solvents.

[2] = Key water activity research, crystal form A and hydrate crystal form E; type: physicochemical; conditions: room temperature
[3] = Room temperature storage of crystal form F (XRPD); type: physicochemical; conditions: room temperature (18-20° C./45~75% RH), about 3 days

The crystal form obtained (suspension competition) ([1]; ACN, 60° C., test D220-PS-14-A3): Crystal form A
The crystal form obtained (suspension competition) ([1]; ACN, Room temperature(~18° C.), test D220-PS-14-A1): Crystal form A
The crystal form obtained (suspension competition) ([1]; EtOAc, 60° C., test D220-PS-14-A4): Crystal form A
The crystal form obtained (suspension competition) ([1]; EtOAc, Room temperature(~18° C.), test D220-PS-14-A2): Crystal form A
Structure (SMILES): O=C1CO[C@H](c2cn(-c3ccc(Br)cc3)nc2-c2ccc(F)cc2)N1CCc1ccc2[nH]c(=O)[nH]c2c1 [Crystal form A/G]

The crystal form obtained (key water activity) ([2]; Water activity(Aw) 0, Acetone/H2O 1000:0 v/v): Crystal form A
The crystal form obtained (key water activity) ([2]; Water activity(Aw) 0.2, Acetone/H2O 984:16 v/v): Crystal form A
The crystal form obtained (key water activity) ([2]; Water activity(Aw) 0.4, Acetone/H2O 948:52 v/v): Crystal form A
The crystal form obtained (key water activity) ([2]; Water activity(Aw) 0.6, Acetone/H2O 857:143 v/v): Crystal form A
The crystal form obtained (key water activity) ([2]; Water activity(Aw) 0.8, Acetone/H2O 604:396 v/v): Crystal form A
The crystal form obtained (key water activity) ([2]; Water activity(Aw) 1.0, Acetone/H2O 0:1000 v/v): Crystal form E
Structure (SMILES): O=C1CO[C@H](c2cn(-c3ccc(Br)cc3)nc2-c2ccc(F)cc2)N1CCc1ccc2[nH]c(=O)[nH]c2c1

crystal form after being placed at room temperature [3]: transformed into crystal form E
Structure (SMILES): O=C1CO[C@H](c2cn(-c3ccc(Br)cc3)nc2-c2ccc(F)cc2)N1CCc1ccc2[nH]c(=O)[nH]c2c1 [Crystal form F]

Further lines, the compound ahead of its results:

Structure (SMILES): Nc1ccc(CCN2C(=O)COC2c2cn(-c3ccc(Br)cc3)nc2-c2ccc(F)cc2)cc1N (centres unmarked) [2-(1-(4-bromophenyl)-3-(4-fluorophenyl)-1H-pyrazole-4-yl)-3-(3,4-diaminophenethyl) oxazolidin-4-one]
AMES experiments (AMES experiments): positive

Structure (SMILES): Nc1ccc(CCN2C(=O)COC2c2cn(-c3ccc(Br)cc3)nc2-c2ccc(F)cc2)cc1[N+](=O)[O-] (centres unmarked) [3-(4-amino-3-nitrophenylethyl)-2-(1-(4-bromophenyl)-3-(4-fluorophenyl)-1H-pyrazole-4-yl) oxazolidin-4-one]
AMES experiments (AMES experiments): positive

Structure (SMILES): CC(=O)Nc1ccc(CCN2C(=O)COC2c2cn(-c3ccc(Br)cc3)nc2-c2ccc(F)cc2)cc1[N+](=O)[O-] (centres unmarked) [3-(4-acetylamino-3-nitrophenylethyl)-2-(3-(4-fluorophenyl)-1-(4-bromophenyl)-1H-pyrazole-4-yl) oxazolidin-4-one]
AMES experiments (AMES experiments): positive
